Data published in PubChem BioAssay (NCI).
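GI50: concentration for 50% inhibition of growth. At the TGI there is no net growth.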

What was measured:
Assay in all cases: growth of human tumour cells (NCI), 384-well format
[1] = tested on: T-47D breast
[2] = tested on: SNB-19 CNS
[3] = tested on: UO-31 renal
[4] = tested on: U251 glioblastoma
[5] = tested on: NCI-H23 lung
[6] = tested on: MDA-MB-231 breast
[7] = tested on: SF-268 CNS
[8] = tested on: 786-0 renal
[9] = tested on: MDA-MB-468 breast
[10] = tested on: HOP-62 NSCLC
[11] = tested on: NCI-H460 NSCLC
[12] = tested on: MDA-MB-435 melanoma
[13] = tested on: IGROV1 ovarian
[14] = tested on: NCI-H226 lung
[15] = tested on: BT-549 breast
[16] = tested on: HL-60(TB) leukemia
[17] = tested on: SK-MEL-5 melanoma
[18] = tested on: ACHN renal
[19] = tested on: HCT-15 colon
[20] = tested on: NCI-H522 lung
[21] = tested on: SK-OV-3 ovarian
[22] = tested on: TK-10 renal
[23] = tested on: HS 578T breast
[24] = tested on: SW-620 colon
[25] = tested on: UACC-257 melanoma
[26] = tested on: OVCAR-3 ovarian
[27] = tested on: SN12C renal
[28] = tested on: HCT-116 colon
[29] = tested on: OVCAR-8 ovarian
[30] = tested on: SR leukemia
[31] = tested on: DU-145 prostate
[32] = tested on: M14 melanoma
[33] = tested on: HOP-92 NSCLC
[34] = tested on: RXF 393 renal
[35] = tested on: MCF7 breast
[36] = tested on: SK-MEL-28 melanoma
[37] = tested on: SK-MEL-2 melanoma
[38] = tested on: SF-539 CNS
[39] = tested on: MOLT-4 leukemia
[40] = tested on: COLO 205 colon
[41] = tested on: SF-295 CNS
[42] = tested on: NCI-H322M lung
[43] = tested on: UACC-62 melanoma
[44] = tested on: SNB-75 CNS
[45] = tested on: EKVX NSCLC
[46] = tested on: OVCAR-5 ovarian
[47] = tested on: K-562 leukemia
[48] = tested on: KM12 colon
[49] = tested on: PC-3 prostate
[50] = tested on: HT29 colon
[51] = tested on: A498 renal
[52] = tested on: MALME-3M melanoma
[53] = tested on: OVCAR-4 ovarian
[54] = tested on: A549 NSCLC
[55] = tested on: CAKI-1 renal

## COc1cc(Nc2ncc(F)c(Nc3ccc4c(n3)N(COP(=O)(O)O)C(=O)C(C)(C)O4)n2)cc(OC)c1OC
[1]
  GI50: 2.37 µM
  TGI: 9.31 µM
[2]
  GI50: 1.92 µM
  TGI: 4.97 µM
[3]
  GI50: 0.654 µM
  TGI: 2.83 µM
[4]
  GI50: 1.7 µM
  TGI: 6.87 µM
[5]
  GI50: 1.38 µM
  TGI: 4.4 µM
[6]
  GI50: 1.98 µM
  TGI: 5.78 µM
[7]
  GI50: 1.45 µM
  TGI: 2.81 µM
[8]
  GI50: 1.32 µM
  TGI: 2.99 µM
[9]
  GI50: 1.7 µM
  TGI: 3.34 µM
[10]
  GI50: 1.45 µM
  TGI: 3.71 µM
[11]
  GI50: 0.534 µM
  TGI: 11.3 µM
[12]
  GI50: 2.35 µM
  TGI: 25.4 µM
[13]
  GI50: 0.427 µM
  TGI: 1.6 µM
[14]
  GI50: 0.64 µM
  TGI: 2.49 µM
[15]
  GI50: 1.3 µM
  TGI: 2.74 µM
[16]
  GI50: 1.57 µM
  TGI: 3.03 µM
[17]
  GI50: 2.51 µM
  TGI: 6.66 µM
[18]
  GI50: 1.25 µM
  TGI: 5.82 µM
[19]
  GI50: 3.06 µM
  TGI: > 100 µM
[20]
  GI50: 0.679 µM
  TGI: 2.2 µM
[21]
  GI50: 0.871 µM
  TGI: 2.23 µM
[22]
  GI50: 1.38 µM
  TGI: 3.13 µM
[23]
  GI50: 1.26 µM
  TGI: 2.55 µM
[24]
  GI50: 1.88 µM
  TGI: 6.61 µM
[25]
  GI50: 4.06 µM
  TGI: > 100 µM
[26]
  GI50: 1.97 µM
  TGI: 11.1 µM
[27]
  GI50: 0.724 µM
  TGI: 7.14 µM
[28]
  GI50: 1.93 µM
  TGI: 6.52 µM
[29]
  GI50: 1.61 µM
  TGI: 3.01 µM
[30]
  GI50: 1.51 µM
  TGI: 2.95 µM
[31]
  GI50: 1.89 µM
  TGI: 7.54 µM
[32]
  GI50: 2.41 µM
  TGI: 38.8 µM
[33]
  GI50: 1.26 µM
  TGI: 2.6 µM
[34]
  GI50: 0.241 µM
  TGI: 0.887 µM
[35]
  GI50: 1.91 µM
  TGI: > 100 µM
[36]
  GI50: 2.34 µM
  TGI: > 100 µM
[37]
  GI50: 2.93 µM
  TGI: 16.5 µM
[38]
  GI50: 0.618 µM
  TGI: 1.87 µM
[39]
  GI50: 1.38 µM
  TGI: 3.03 µM
[40]
  GI50: 1.64 µM
  TGI: 3.67 µM
[41]
  GI50: 2.5 µM
  TGI: 88.3 µM
[42]
  GI50: 1.75 µM
  TGI: 4.85 µM
[43]
  GI50: 1.22 µM
  TGI: 3.45 µM
[44]
  GI50: 0.505 µM
  TGI: 1.68 µM
[45]
  GI50: 1.09 µM
  TGI: 2.63 µM
[46]
  GI50: 1.94 µM
  TGI: 42.8 µM
[47]
  GI50: 2.63 µM
  TGI: 10.8 µM
[48]
  GI50: 2.9 µM
  TGI: 10.9 µM
[49]
  GI50: 2.73 µM
  TGI: 12.3 µM
[50]
  GI50: 1.41 µM
  TGI: 4.49 µM
[51]
  GI50: 1.74 µM
  TGI: 3.35 µM
[52]
  GI50: 2.3 µM
  TGI: > 100 µM
[53]
  GI50: 1.45 µM
  TGI: 4.12 µM
[54]
  GI50: 1.52 µM
  TGI: 3.12 µM
[55]
  GI50: 0.974 µM
  TGI: 2.16 µM
